Experiment: GHS categories as the set defines them, by LD50: 1 up to 5, 2 up to 50, 3 up to 300, 4 up to 2000, 5 above 2000 mg/kg
Conditions: rat; in vivo; po
Text: […]The data set underlying the modeling effort for this project was initially compiled by NICEATM and U.S. EPA’s CCTE. Briefly, LD50 data were collected from rat acute oral systemic toxicity tests, including limit tests, ranges/confidence intervals, and discrete LD50 values. The full data set included 21,200 LD50 entries for 15,688 substances. […] Data were reviewed to ensure that LD50 values with obvious errors in the extracted data such as unit conversion errors (e.g., comma and decimal separator misplacements) were either fixed or removed. After this review, 16,209 LD50 values remained. Many of the chemicals represented had multiple LD50 entries, requiring that a single representative value per Chemical Abstracts Service Registry Number (CASRN) identifier be defined to facilitate modeling efforts. Based on ATWG feedback and to define the representative LD50 as a protective value while accounting for the distribution across multiple LD50s, the median of the lowest quartile was computed using only discrete LD50 values (omitting limit test data and range and confidence interval data). A detailed summary of the data compilation is available online on the NICEATM webpage dedicated to the collaborative modeling project (NTP 2020).
[…][…] For categorical designations, limit test and range/confidence interval LD50 data were integrated wherever possible. As such, the number of chemicals with end point values/calls varies across the modeling end points (Table 3) based on whether chemicals had representative LD50 values and/or other data. If a chemical had both, the representative value was used to determine categorical calls rather than limit test data. Some data were useable only for certain end points and categories depending on the thresholds. For example, ranges that spanned multiple hazard categories were considered only for the binary (very toxic/nontoxic) end points and omitted from rendering a determination for hazard category assignment.
[…]The final data set comprising 11,992 chemicals was split into training and evaluation sets […], respectively. This process was performed semirandomly by ordering chemicals based on the five end points (categorical and continuous LD50 values) and partitioning every fourth record into the evaluation set accordingly. This approach was taken to ensure an equivalent distribution of the LD50 values and the different hazard categories between the training and the evaluation sets without supervised sampling of the chemicals based on structures (Figure 1A). The sources of the chemical structures were also kept equivalent between the two sets, with chemical structures obtained from DSSTox, being the highest quality, representing over 75% of each set (Figure 1B).
`CCCN(CCC)c1c([N+](=O)[O-])cc(S(N)(=O)=O)cc1[N+](=O)[O-]` gave a GHS category of 5. Work on `COc1nn(C(=O)NS(=O)(=O)c2ccccc2OC(F)(F)F)c(=O)n1C` yielded a GHS category of 5. With `C[S+](C)CC[C@@H](N)C(=O)O` (racemic) the GHS category was 5. Compound `CCOC(=O)Oc1c(OC)cc(C(=O)O[C@@H]2C[C@@H]3CN4CCc5c([nH]c6cc(OC)ccc56)[C@H]4C[C@@H]3[C@H](C(=O)OC)[C@H]2OC)cc1OC` has a GHS category of 5. `CCC(CC)Nc1nnc(-c2ccccc2)c2ccccc12` gave a GHS category of 5. In the case of `CCc1cccc(C)c1Nc1ccc(Nc2c(C)cccc2CC)c2c1C(=O)c1ccccc1C2=O`, the GHS category is reported as 5. For `CCSCCCSc1nnnn1C`, the GHS category was 4. For `CC1=NN(c2cccc(S(=O)(=O)O)c2)C(=O)C1`, the GHS category was 5. For `Clc1cc(Cl)c(OCC#CI)cc1Cl`, the GHS category was 5. Compound `O=C(O)c1ccc(B(O)O)cc1` has a GHS category of 5. With `CN1C2CCC1CC(OS(C)(=O)=O)C2` (configuration not stated) the GHS category was 4. In the case of `CCOCC1COC(Cn2cncn2)(c2cc3cc(Cl)cc(Cl)c3o2)O1` (configuration not stated), the GHS category is reported as 4. For `CCCC(=O)c1ccc2c(c1)OC(C)(C)C(=O)N2C`, the GHS category was 5. Work on `CC(C=O)C(=O)c1ccc(C2CCCCC2)cc1` (configuration not stated) yielded a GHS category of 4. With `CC1CC(NC(N)=O)NC(=O)N1` (configuration not stated) the GHS category was 5. For `CCC(C(=O)Oc1ccccc1OC)c1ccc(-c2ccccc2)cc1` (configuration not stated), the GHS category was 5. `COc1cc(C(=O)OCCCN2CCCN(CCCOC(=O)c3cc(OC)c(OC)c(OC)c3)CC2)cc(OC)c1OC` showed a GHS category of 5. With `CC(C)CCOCCc1ccccc1` the GHS category was 5. For `OCCN1CNC(=S)NC1`, the GHS category was 5. Compound `CO[C@]12CC[C@@]3(C[C@@H]1[C@](C)(O)C(C)(C)C)[C@H]1Cc4ccc(O)c5c4[C@@]3(CCN1CC1CC1)[C@H]2O5` has a GHS category of 4. For `CC(=O)C[N+]1(CC(N)=O)C(=O)Sc2ccc(Cl)cc21` (configuration not stated), the GHS category was 5. In the case of `C=C(C)CCO`, the GHS category is reported as 5. `OCC(O)COc1nn(Cc2ccccc2)c2ccccc12` (configuration not stated) showed a GHS category of 5. In the case of `NCCCC[C@H](OP(=O)(O)CCCCc1ccccc1)C(=O)N1CCC[C@H]1C(=O)O`, the GHS category is reported as 5. Compound `CC(=O)Oc1ccccc1C(=O)Oc1cccc(CO[N+](=O)[O-])c1` has a GHS category of 5. `Nc1ccc(C(=O)c2ccccc2)cc1O` showed a GHS category of 5. `CCCc1nc2ccnn2c(N2CCOCC2)c1Cc1ccc(-c2ccccc2-c2nn[nH]n2)cc1` showed a GHS category of 4. `CCCCCC(O)CC` (configuration not stated) gave a GHS category of 5. For `CC=CC=CCOC(=O)CCC`, the GHS category was 5. `CCCCCCCCCCCCCC` showed a GHS category of 5. With `N#CCCn1ccnc1` the GHS category was 4. For `O=C(O)c1ccccc1N=Cc1ccccc1`, the GHS category was 4. For `CC(C)(c1ccccc1)C(C)(C)c1ccccc1`, the GHS category was 5. Work on `O=C(O)CSCC(=O)NC1CCSC1=O` (configuration not stated) yielded a GHS category of 5. For `O=C(O)c1ccc(/N=N/c2ccc(O)c(C(=O)O)c2)cc1`, the GHS category was 5. For `Cc1ccc2ncc(C(=O)NC3CCCC3)c(=O)n2c1`, the GHS category was 3. In the case of `CCOC(=O)c1c[nH]c2c(F)c(F)c(F)cc2c1=O`, the GHS category is reported as 5. In the case of `CCOC(=O)[C@H](CCc1ccccc1)N[C@H]1CCCN2CCC[C@@H](C(=O)O)N2C1=O`, the GHS category is reported as 5. In the case of `CCN(CC)CCN(CCN(CC)CC)n1cc(-c2ccc(Cl)cc2)c2cc(C)ccc21`, the GHS category is reported as 4. Compound `CC(=O)CCC=C(C)CCC=C(C)C` has a GHS category of 5. For `O=C(Nc1ccc2[nH]c(=O)[nH]c2c1)c1cc2ccccc2c(N=Nc2cc(Cl)ccc2Cl)c1O`, the GHS category was 5. `Fc1ccccc1C1c2ccccc2CCN1c1cccc(C(F)(F)F)c1` (configuration not stated) gave a GHS category of 4. Work on `COC(=O)CBr` yielded a GHS category of 3. For `CC[C@H]1CO[C@@](Cn2cncn2)(c2cc3cc(Cl)ccc3o2)O1`, the GHS category was 4. `Nc1nc2cc(Cl)cc(S(=O)(=O)O)c2o1` showed a GHS category of 4. In the case of `CC[C@H](C)C(=O)O[C@H]1C[C@@H](C)C=C2C=C[C@H](C)[C@H](CC[C@@H]3C[C@@H](O)CC(=O)O3)[C@H]21`, the GHS category is reported as 5. `CC(C)=CCC[C@@](C)(O)[C@H]1CC=C(C)CC1` gave a GHS category of 5. `CC(=O)OCC(=O)[C@@]12OC3(CCCC3)O[C@@H]1C[C@H]1[C@@H]3CCC4=CC(=O)C=C[C@]4(C)[C@@]3(F)[C@@H](O)C[C@@]12C` showed a GHS category of 5. Work on `O=[N+]([O-])c1ccc(C(O)C(CO)N=Cc2ccc(N(CCCl)CCCl)cc2)cc1` (configuration not stated) yielded a GHS category of 5. Work on `COc1ccc(C(=O)OC2=C(C(=O)Nc3ccccn3)N(C)S(=O)(=O)c3ccsc32)cc1` yielded a GHS category of 2. In the case of `CC1=C(C(=O)O)N2C(=O)[C@@H](NC(=O)[C@H](N)c3ccc(O)cc3)[C@H]2SC1`, the GHS category is reported as 5. Work on `COc1ccc(C(=O)CC(=O)c2ccc(C(C)(C)C)cc2)cc1` yielded a GHS category of 5. `CC(=O)Nc1cc(NS(=O)(=O)C(F)(F)F)c(C)cc1C` gave a GHS category of 5. Compound `CCCCOC(=O)CCP1(=O)Oc2ccccc2-c2ccccc21` (configuration not stated) has a GHS category of 5. `CC1CC(OC(=O)COc2ccc(F)cc2)CC(C)(C)C1` (configuration not stated) showed a GHS category of 5. For `COC(=O)CCCC(=O)OC`, the GHS category was 5. In the case of `COc1ccc2c(c1)CCN(c1ccccc1)C2c1ccccc1` (configuration not stated), the GHS category is reported as 4. Compound `C=CCCCCCCCC(=O)N(C)C` has a GHS category of 4. For `CCOC(=O)C(=O)Nc1cc(OC)nc(C)n1`, the GHS category was 4. With `CN1CC(c2ccon2)CC2c3cccc4[nH]cc(c34)CC21` (configuration not stated) the GHS category was 4. `c1coc(CNc2[nH]cnc3ncnc2-3)c1` gave a GHS category of 5. Work on `Cc1cc(C(=O)Nc2cccc(C)c2C)n[nH]1` yielded a GHS category of 5. In the case of `CCC1(CC)COP(=S)(N(SN(C)C(=O)ON=C(C)SC)C2CCCCC2)OC1`, the GHS category is reported as 5. `CC1Oc2cc(C(=O)c3ccccc3)ccc2NC1=O` (configuration not stated) gave a GHS category of 5. In the case of `CCCCCCCCCCCCCCCCCC(=O)OCCOC(=O)CCCCCCCCCCCCCCCCC`, the GHS category is reported as 5. For `CCN(CC)CCc1nc(-c2ccccc2)no1`, the GHS category was 5. For `CCCCCCCCCCCCCCCCCC(=O)OC[C@@H](OC(=O)CCCCCCCCCCCCCCCCC)[C@H]1OC[C@H](O)[C@H]1OC(=O)CCCCCCCCCCCCCCCCC`, the GHS category was 5. `FC(F)(F)c1cccc(C2=CCN(CCc3ccc4ccccc4c3)CC2)c1` showed a GHS category of 4. For `C=C1C2CCC(C2)C1(C)C` (configuration not stated), the GHS category was 5. Compound `CC(C)C[C@H](N)C(=O)O` has a GHS category of 5. `COC(=O)c1c(C(F)F)nc(C(F)(F)F)c(C2=NCCS2)c1CC(C)C` showed a GHS category of 5. Work on `O=C=Nc1cccc2c(N=C=O)cccc12` yielded a GHS category of 5. `Cc1cc(OP(Oc2cc(C)c(C(C)(C)C)cc2C(C)(C)C)Oc2cc(C)c(C(C)(C)C)cc2C(C)(C)C)c(C(C)(C)C)cc1C(C)(C)C` gave a GHS category of 5. Work on `C/C=C/C/C=C\CCCCCCCCOC(C)=O` yielded a GHS category of 4. `CCCC(=O)OCCC(C)C` gave a GHS category of 5. For `Cc1ccc(C(C)C)c(OC(=O)c2ccccc2Nc2cccc(C)c2C)c1`, the GHS category was 5. Compound `O=C(Nc1ccccc1C(=O)O)C(=Cc1ccccc1)C(=O)Nc1ccccc1C(=O)O` has a GHS category of 5. Compound `CCCCCC(=Cc1ccccc1)C(OCC)OCC` has a GHS category of 5. Work on `CCC(=O)OC1CC(=O)OC(C)CC=CC=CC(OC(C)=O)C(C)CC(CC=O)C(OC2OC(C)C(OC3CC(C)(OC(C)=O)C(OC(=O)CC)C(C)O3)C(N(C)C)C2O)C1OC` (configuration not stated) yielded a GHS category of 5. In the case of `O=C1COc2cc(C(=O)c3ccccc3)ccc2N1`, the GHS category is reported as 5. In the case of `CCOC1(c2ccco2)CCN(CCc2ccccc2)CC1C` (configuration not stated), the GHS category is reported as 2. Work on `CO[C@@]1(NC(=O)C2SC(=C(C(N)=O)C(=O)O)S2)C(=O)N2C(C(=O)O)=C(CSc3nnnn3C)CS[C@@H]21` (some centres not stated) yielded a GHS category of 5.

Source: the CATMoS acute toxicity set (Mansouri et al. 2021)
